Patent US5457101A (priority 1994, dated 1995)

Legend:
[1] = system: cloned human 5-HT2B receptor; assay: [3H]5-HT radioligand binding, cloned human 5-HT2B receptor; conditions: statement in words only, no value given
[2] = studies using radiolabelled compound, residues in saliva; assay type: in vivo
Procedure: For example, in the treatment of adult humans, dosages of from 0.25 to 30 mg, preferably from 1 to 20 mg, per day may be used. A once a day dosage is normally sufficient, although divided doses may be administered. For treatment of gastrointestinal disorders, a dose range of from 1 to 20 mg, preferably 2.5 to 15 mg per day is suitable.

## Cc1cc2c(s1)Nc1ccccc1N=C2N1CCN(C)CC1 [2-methyl-4-(4-methyl-1-piperazinyl)-10H-thieno-[2,3-b][1,5]benzodiazepine]
[1]
  5-HT2B receptor activity: 5-HT2B receptor activity
[2]
  residues of radiolabelled compound in saliva: detected in the saliva
